Tested on: ROK
Assay: ROK activity assay
Type: biochemical
Parameters: key: +: active; ++: more active; +++: very active
Settings: assays conducted at 1-100 μM

Compound	ROK activity
NC(=O)c1cccc(-c2cncc(NCc3ccc(Cl)cc3)c2)c1 [3-[5-(4-Chloro-benzylamino)-pyridin-3-yl]-benzamide]	++
Fc1cc(CNc2cncc(-c3ccncc3)c2)ccc1Cl [[3,4′]Bipyridinyl-5-yl-(4-chloro-3-fluoro-benzyl)-amine]	+++
COc1ccc(CNc2cncc(-c3ccncc3)c2)cc1 [[3,4′]Bipyridinyl-5-yl-(4-methoxy-benzyl)-amine]	+++
Oc1cccc(CNc2cncc(-c3cc[nH]n3)c2)c1 [3-{[5-(1H-Pyrazol-3-yl)-pyridin-3-ylamino]-methyl}-phenol]	++
Oc1cccc(CNc2cncc(-c3cncc4ccccc34)c2)c1 [3-[(5-Isoquinolin-4-yl-pyridin-3-ylamino)-methyl]-phenol]	+
COc1ccc(CNc2cncc(-c3cccc(C(N)=O)c3)c2)cc1 [3-[5-(4-Methoxy-benzylamino)-pyridin-3-yl]-benzamide]	+
Clc1ccc(CNc2cncc(-c3ccncc3)c2)cc1Cl [[3,4′]Bipyridinyl-5-yl-(3,4-dichloro-benzyl)-amine]	++
NS(=O)(=O)c1ccc(CNc2cnc(-c3ccncc3)cn2)cc1 [4-[(5-Pyridin-4-yl-pyrazin-2-ylamino)-methyl]-benzenesulfonamide]	++
c1cc(-c2cncc(NCc3ccc4c(c3)OCO4)c2)ccn1 [Benzo[1,3]dioxol-5-ylmethyl-[3,4′]bipyridinyl-5-yl-amine]	++
Oc1ccc(-c2cncc(NCc3ccoc3)c2)cc1 [4-{5-[(Furan-3-ylmethyl)-amino]-pyridin-3-yl}-phenol]	++
Oc1ccc(-c2cncc(NCc3ccc(F)c(F)c3)c2)cc1 [4-[5-(3,4-Difluoro-benzylamino)-pyridin-3-yl]-phenol]	++
Brc1ccc(CNc2cncc(-c3ccncc3)c2)cc1 [[3,4′]Bipyridinyl-5-yl-(4-bromo-benzyl)-amine]	+++
Clc1ccc(CNc2cncc(-c3ccncc3)c2)cc1 [[3,4′]Bipyridinyl-5-yl-(4-chloro-benzyl)-amine]	+++
Nc1ccc(C(=O)Nc2ccc(Nc3cnc(-c4ccncc4Cl)cn3)cc2)cc1 [4-Amino-N-{4-[5-(3-chloro-pyridin-4-yl)-pyrazin-2-ylamino]-phenyl}-benzamide]	++
OCc1cccc(-c2cncc(NCc3cccc(O)c3)c2)c1 [3-{[5-(3-Hydroxymethyl-phenyl)-pyridin-3-ylamino]-methyl}-phenol]	+
O=C(NCCO)c1cccc(-c2cnc(NCCc3ccncc3)cn2)c1 [N-(2-Hydroxy-ethyl)-3-[5-(2-pyridin-4-yl-ethylamino)-pyrazin-2-yl]-benzamide]	+
Oc1cccc(CNc2cncc(-c3ccncc3Cl)c2)c1 [3-[(3′-Chloro-[3,4′]bipyridinyl-5-ylamino)-methyl]-phenol]	+++
Fc1ccc(-c2cnc(NCCc3ccncc3)cn2)cc1Cl [[5-(3-Chloro-4-fluoro-phenyl)-pyrazin-2-yl]-(2-pyridin-4-yl-ethyl)-amine]	+
Nc1ccc(-c2cncc(NCc3cccc(O)c3)c2)cc1 [3-{[5-(4-Amino-phenyl)-pyridin-3-ylamino]-methyl}-phenol]	+
NC(=O)c1cccc(-c2cncc(NCc3ccc(F)c(F)c3)c2)c1 [3-[5-(3,4-Difluoro-benzylamino)-pyridin-3-yl]-benzamide]	++
FC(F)(F)Oc1cccc(-c2cnc(NCCc3ccncc3)cn2)c1 [(2-Pyridin-4-yl-ethyl)-[5-(3-trifluoromethoxy-phenyl)-pyrazin-2-yl]-amine]	++

Compound	ROK activity
NC(=O)c1ccc(-c2cncc(NCc3cccc(O)c3)c2)cc1 [4-[5-(3-Hydroxy-benzylamino)-pyridin-3-yl]-benzamide]	+++
COc1ccc(CNc2cncc(-c3ccc(O)cc3)c2)cc1 [4-[5-(4-Methoxy-benzylamino)-pyridin-3-yl]-phenol]	++
Nc1cccc(-c2cncc(NCc3cccc(O)c3)c2)c1 [3-{[5-(3-Amino-phenyl)-pyridin-3-ylamino]-methyl}-phenol]	+
NC(=O)c1cccc(-c2cncc(NCc3ccc(Cl)c(Cl)c3)c2)c1 [3-[5-(3,4-Dichloro-benzylamino)-pyridin-3-yl]-benzamide]	++
Clc1cccc(CNc2cncc(-c3ccncc3)c2)c1 [[3,4′]Bipyridinyl-5-yl-(3-chloro-benzyl)-amine]	++
NC(=O)c1cccc(-c2cncc(NCc3ccc(Cl)c(F)c3)c2)c1 [3-[5-(4-Chloro-3-fluoro-benzylamino)-pyridin-3-yl]-benzamide]	++
Oc1ccc(-c2cnc(NCCc3ccncc3)cn2)cc1 [4-[5-(2-Pyridin-4-yl-ethylamino)-pyrazin-2-yl]-phenol]	+
OCCC1CCCCN1c1cnc(-c2ccncc2)cn1 (stereo not drawn) [2-[1-(5-Pyridin-4-yl-pyrazin-2-yl)-piperidin-2-yl]-ethanol]	+
Oc1ccc(-c2cncc(NCc3ccc4c(c3)OCO4)c2)cc1 [4-{5-[(Benzo[1,3]dioxol-5-ylmethyl)-amino]-pyridin-3-yl}-phenol]	++
Oc1ccc(-c2cncc(NCc3cc(O)cc(O)c3)c2)cc1 [5-{[5-(4-Hydroxy-phenyl)-pyridin-3-ylamino]-methyl}-benzene-1,3-diol]	++
Oc1cccc(-c2cncc(Nc3ccc(Cl)cc3)c2)c1 [3-[5-(4-Chloro-phenylamino)-pyridin-3-yl]-phenol]	+
NC(=O)c1cccc(-c2cncc(Nc3cccc(Br)c3)c2)c1 [3-[5-(3-Bromo-phenylamino)-pyridin3-yl]-benzamide]	+
OCc1ccc(-c2cnc(NCCc3ccncc3)cn2)cc1 [{4-[5-(2-Pyridin-4-yl-ethylamino)-pyrazin-2-yl]-phenyl}-methanol]	+
NC(=O)c1cccc(-c2cncc(NCC3CCCCC3)c2)c1 [3-[5-(Cyclohexylmethyl-amino)-pyridin-3-yl]-benzamide]	+
c1cc(-c2cncc(NCc3ccoc3)c2)ccn1 [[3,4′]Bipyridinyl-5-yl-furan-3-ylmethyl-amine]	++
CC(=O)c1ccc(-c2cnc(NCCc3ccncc3)cn2)s1 [1-{5-[5-(2-Pyridin-4-yl-ethylamino)-pyrazin-2-yl]-thiophen-2-yl}-ethanone]	+
Oc1ccc(-c2cncc(NCc3cccc(O)c3)c2)cc1 [(5-(4′-hydroxy-phenyl)-pyridin-3-yl)-(3-hydroxy-benzyl)-amine]	+++
CC(Nc1cnc(-c2ccc(O)cc2)cn1)c1ccccc1 (stereo not drawn) [4-[5-(1-Phenyl-ethylamino)-pyrazin-2-yl]-phenol]	++
Brc1cccc(Nc2cncc(-c3ccncc3)c2)c1 [[3,4′]Bipyridinyl-5-yl-(3-bromo-phenyl)-amine]	++
c1ccc2cc(-c3cnc(NCCc4ccncc4)cn3)ccc2c1 [(5-Naphthalen-2-yl-pyrazin-2-yl)-(2-pyridin-4-yl-ethyl)-amine]	++
c1csc(CNc2cnc(-c3ccncc3)cn2)c1 [(5-Pyridin-4-yl-pyrazin-2-yl)-thiophen-2-ylmethyl-amine]	++

From patent publication US20090163515A1, “Compounds Which Bind to the Active Site of Protein Kinase Enzymes” (Biofocus Discovery Ltd., priority 2003, published 2009)
